From patent US20090088373A1, “USE OF COMPOSITIONS TO ENHANCE INNATE IMMUNE RESPONSE” (priority 2007, published 2009) come the findings set out here.

One test deals with TLR1. Kind of test: TLR1 gene expression by qPCR in NHEK. The format is cell-based, human. The note with it: Example 3; 10 nM pimecrolimus, 1 nM 1.25D3. Here is the method: (§1) To assess the effect of pimecrolimus on the innate immune response of the epidermis, cultures of normal human keratinocytes (NHEK) are stimulated with a combination of a concentration of 10 nM pimecrolimus and of 1 nM 1.25D3. Gene expression of TLR1, TLR2, TLR4, TLR6 and CD14 are evaluated by qPCR. For CD14 protein expression, a Western Blot is performed and bands are quantified by densitometry using lmagej. Vehicle treated keratinocytes serve as controls. Cathelicidin protein expression is evaluated by immunofluorescence staining.
(Real-time PCR tracks product formation cycle by cycle.)

Another test concerns CD14. Kind of test: CD14 gene expression by qPCR in NHEK. The format is cell-based, human. As to conditions: for CD14 mRNA expression (Mean): 10 nM pimecrolimus; for CD14 mRNA expression (Means of N = 3): Example 6, 10 nM Pimecrolimus, 1 nM 1,25D3. As to the method:
as §1
To assess the effect of pimecrolimus on the innate immune response of the epidermis, cultures of normal human keratinocytes (NHEK) are stimulated with a concentration of 10 nM pimecrolimus,1 nM 1.25 D3, 0.1 μg/ml TLR2/6 ligand Malp-2 or their combination. Expression of cathelicidin, CD14 and TLR2 mRNA normal human keratinocytes is measured and evaluated accordingly to the procedures as detailed in Example 2 above.
To assess the effect of time dependent effects of pimecrolimus on the innate immune response of the epidermis, cultures of normal human keratinocytes (NHEK) are stimulated with 10 nM Pimecrolimus and low dose calciferol (1,25D3) 1 nM for different time points. mRNA expression of cathelicidin, CD14 and TLR2 is analyzed by qPCR.

The subject of test [1] is Human Beta Defensin (HBD) 2. Kind of test: HBD2 expression in normal human keratinocytes (NHEK). The format is cell-based. Set-up: unit not given here. The note with it: Example 2. As to the method: To assess the effect of pimecrolimus on the innate immune response of the epidermis, cultures of normal human keratinocytes (NHEK) are stimulated with combinations of a concentration of 10 nM pimecrolimus, 1 μg/ml TLR 2/CD14 ligand—peptidoglycan (PGN), 10 μg/ml lipoteichoic acid (LTA), 2 0.1 μg/ml TLR 2/6 ligand—Malp-, and/or 0.1 μg/ml TLR 4/CD14 ligand—lipopolysaccharide (LPS). Expression of cathelicidin mRNA (Table 3) and protein as well as Human Beta Defensin (HBD) 2 (Table 4) and HBD3 (Table 5) expression in normal human keratinocytes is measured.

Molecules are shown by their SMILES.

Take `CC[C@@H]1/C=C(\C)C[C@H](C)C[C@H](OC)[C@H]2O[C@@](O)(C(=O)C(=O)N3CCCC[C@H]3C(=O)O[C@H](/C(C)=C/[C@@H]3CC[C@H](Cl)[C@H](OC)C3)[C@H](C)[C@@H](O)CC1=O)[C@H](C)C[C@@H]2OC` [Pimecrolimus, pimecrolimus]: in the test on TLR1, the “TLR1 mRNA expression (Mean)” value worked out at 3.16. Besides, the “CD14 mRNA expression (Mean)” value in the test with CD14 (Example 3, 1 nM 1.25D3) is reported as 2.07; in the test on CD14 (Example 4, 1 nM 1.25 D3, 0.1 μg/ml Malp-2 or combination), 2.07. Besides, the “CD14 mRNA expression (Means of N = 3)” value with CD14 (0 h) came out at 1.54; with CD14 (8 h) it was 1.46; in the test with CD14 (24 h), 2.10; in the test on CD14 (48 h), 1.04. Also, the “Effect on 1,25D3-induced CD14 mRNA expression (in words)” value in the test with CD14 (after 8 hours of treatment) was “suppressed”; with CD14 (after 24 hours) it was “enhanced”. In addition, the “CD14 expression (in words)” value with CD14 (in the presence of low dose 1,25D3 and Malp-2) is listed as “increasing”. Also, the “HBD2 expression (Mean)” value was determined as 1.34 in test [1] (with 10 nM Pimecrolimus + 0.1 μg/ml LPS); 867.92 in test [1] (with 10 nM Pimecrolimus + 0.1 μg/ml Malp-2); 0.51 in test [1] (with 10 nM Pimecrolimus + 1 μg/ml PGN); 1.77 in test [1] (with 10 nM Pimecrolimus + 10 μg/ml LTA); 6.53 in test [1] (with 10 nM Pimecrolimus, no TLR ligand (control row)).
